In patent US20250122171A1, “Substituted Amine Compounds, Compositions and Methods of Use” (Deep Apple Therapeutics, Inc., priority 2023, published 2025):
pIC50: −log10 of the molar value.

What was measured:
LAD-2 cells = assay: LAD2 Degranulation Assay (Protocol 2), β-hexosaminidase release; format: cell-based; conditions: Homo sapiens; for activity at 0.25 µM: single point 250 nM, 0.5 μM Cortistatin-14, % control β-hexosaminidase activity; for pIC50: 0.5 μM Cortistatin-14, 2 h preincubation, cells without SCF 18-24 hours, top concentration 3 μM
Protocol: LAD-2 cells were maintained at 37° C. with 5% CO2 and grown in complete StemPro-34 media supplemented with 1% L-Glutamate, 1% penicillin/streptomycin, and 250 ng/mL human SCF.
18-24 hours prior to experiment, LAD-2 cells were collected and transferred to growth media without SCF. On the day of experiment, cells were collected by centrifugation and seeded in 384-well assay plates, at 4,000 cells per well in 17 μl freshly made assay buffer (10 mM HEPES, 137 mM NaCl, 2.7 mM KCl, 1.8 mM CaCl2), 1.0 mM MgCl2, 5.6 mM glucose, 0.4 mM NaH2PO4, 0.04% BSA, pH=7.40). For dose-response assays, compounds solubilized in 100% DMSO at 30 mM were serially diluted (1:3) first in 100% DMSO, and 2 intermediate dilutions with assay buffer were used to establish a final top concentration of 3 μM (in assay plate). For single point assays, dilution of DMSO stocks to 250 nM (in assay plate) was performed in the same manner as described for dose-response assays. Final DMSO concentration was kept constant at 0.1% across plates for all assays. Cortistatin-14 at 30 mM stock concentration was solubilized in HBSS+0.1% BSA, stored at −20° C. in 5 μl aliquots and discarded after one freeze-thaw cycle. Final concentration of agonist used in both dose-response and single point assays was 0.5 μM, prepared in assay buffer.
Antagonist equilibrium was established with 2 h preincubation, followed by no wash, direct addition, and stimulation of agonist for 30 minutes at 37° C. For detection of β-hexosaminidase activity, assay plates were centrifuged and 5 μl of cell-free supernatant from each assay well was transferred to a black-walled black-bottomed 384-well plate. Substrate solution (1 mM 4-Methylumbelliferyl N-acetyl-β-D-glucosaminide in citrate buffer, pH=4.5, […]) was added to each well and plates were incubated for 1 hour at 37° C. The plate was read on an EnVision XCite plate reader for umbelliferone fluorescence intensity (λex=355 nm, λem=460 nm). Background-subtracted data was analyzed using either GraphPad Prism or a custom Python script to calculate IC50 using either Log[Antagonist] vs. response (4 parameter) nonlinear regression (dose-response assays) or % control β-hexosaminidase activity (single point assays).

human MRGPRX2 = biological target: T1, human MRGPRX2 (Homo sapiens, UniProt Q96LB1); assay: MRGPRX2 Activity Assay (IP-1 HTRF, antagonist mode); format: cell-based; conditions: FlpIn TRex-MRGPRX2-HEK293 cells; versus 1 μM Cortistatin-14 agonist; 30 minutes preincubation
T1 construct: expressed in transfected cells; host or cells: FlpIn TRex HEK293 (TRex-MRGPRX2-HEK), doxycycline-induced
T1 sequence (Q96LB1 1-330): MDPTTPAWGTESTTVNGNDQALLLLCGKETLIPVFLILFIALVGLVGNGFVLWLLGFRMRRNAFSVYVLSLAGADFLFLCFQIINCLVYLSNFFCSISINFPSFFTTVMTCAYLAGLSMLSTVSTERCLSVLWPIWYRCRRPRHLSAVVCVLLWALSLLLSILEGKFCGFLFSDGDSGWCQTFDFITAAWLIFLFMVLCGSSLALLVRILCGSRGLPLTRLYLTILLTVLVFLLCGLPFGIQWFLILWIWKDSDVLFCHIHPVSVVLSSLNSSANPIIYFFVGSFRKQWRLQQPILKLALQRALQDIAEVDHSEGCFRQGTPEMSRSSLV
How it was run: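 Doxycycline-induced (100 ng/mL, 18-24 h) TRex HEK293 cells stably expressing human MRGPRX2, in HBSS/20 mM HEPES/0.1% BSA/10 mM LiCl. Compounds (top final 30 uM, 1% DMSO) preincubated 30 min, then agonist stimulation 1 h at 37° C without wash. IP-1 accumulation read by HTRF; IC50 from 4-parameter fit.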

Row | pIC50 (human MRGPRX2) | pIC50 (LAD-2 cells) | SMILES | activity at 0.25 µM (LAD-2 cells) [%]
1 | – | – | C[C@@H](C(=O)Nc1cn2c(n1)CC[C@@H]2c1cc(F)ccc1F)N1CCC(F)(F)[C@@H](c2ccc(=O)[nH]c2)C1 (single isomer, unassigned) [Compound 503] | 105
2 | – | – | C[C@@H](C(=O)Nc1cn2c(n1)CC[C@@H]2c1cc(F)cc(F)c1)N1CCC(F)(F)[C@@H](c2c[nH]c(=O)c(C(N)C(F)(F)F)c2)C1 (single isomer, unassigned) [Compound 540] | 124
3 | < 4.52 | < 5.52 | C[C@@H](C(=O)Nc1cn2c(n1)CC[C@@H]2c1cc(F)cc(F)c1)N1CCC(F)(F)[C@@H](c2ccc(=O)[nH]c2)C1 (single isomer, unassigned) [Compound 493] | –
4 | – | < 5.52 | C[C@@H](C(=O)Nc1cn2c(n1)CC[C@@H]2c1ccc(F)cc1F)N1CCC(F)(F)[C@@H](c2ccc(=O)[nH]c2)C1 (single isomer, unassigned) [Compound 505] | 106
5 | – | – | C[C@@H](C(=O)Nc1cn2c(n1)CC[C@@H]2c1cc(F)cc(F)c1)N1CCC(F)(F)C(c2c[nH]c(=O)c(C(O)CO)c2)C1 (stereo partly drawn) [Compound 546, (2S)—N—((R)-5-(3,5-difluorophenyl)-6,7-dihydro-5H-pyrrolo[1,2-a]imidazol-2-yl)-2-(3-(5-(1,2-dihydroxyethyl)-6-oxo-1,6-dihydropyridin-3-yl)-4,4-difluoropiperidin-1-yl)propanamide] | 34
6 | – | – | C[C@@H](C(=O)Nc1cn2c(n1)CC[C@@H]2c1cc(F)cc(F)c1)N1CCC(F)(F)[C@H](c2c[nH]c(=O)c(C(N)C(F)(F)F)c2)C1 (single isomer, unassigned) [Compound 541] | 11
7 | < 4.52 | < 5.52 | C[C@@H](C(=O)Nc1cn2c(n1)CC[C@H]2c1cc(F)cc(F)c1)N1CCCCC1 (single isomer, unassigned) [Compound 500] | –
8 | – | – | C[C@@H](C(=O)Nc1cn2c(n1)CC[C@@H]2c1cc(F)cc(F)c1)N1CCC(F)(F)[C@H](c2c[nH]c(=O)c(CN3CCC(F)(F)CC3)c2)C1 (single isomer, unassigned) [Compound 543] | 59
9 | – | – | C[C@@H](C(=O)Nc1nc2n(n1)[C@@H](c1cc(F)cc(F)c1)CC2)N1CCC(F)(F)[C@@H](c2ccc(=O)[nH]c2)C1 (single isomer, unassigned) [Compound 501] | 101
10 | – | – | C[C@@H](C(=O)Nc1nc2n(n1)[C@H](c1cc(F)cc(F)c1)CC2)N1CCC(F)(F)[C@@H](c2ccc(=O)[nH]c2)C1 (single isomer, unassigned) [Compound 502] | 44
11 | < 4.52 | < 5.52 | C[C@H](C(=O)Nc1cn2c(n1)CC[C@H]2c1cc(F)cc(F)c1)N1CCCCC1 (single isomer, unassigned) [Compound 499] | –
12 | 6.16 | 7.10 | C[C@H](C(=O)Nc1cn2c(n1)CC[C@@H]2c1cc(F)cc(F)c1)N1CCCCC1 (single isomer, unassigned) [Compound 498] | –
13 | – | – | C[C@@H](C(=O)Nc1cn2c(n1)CC[C@@H]2c1cc(F)cc(F)c1)N1CCC(F)(F)C(c2c[nH]c(=O)c(CO)n2)C1 (stereo partly drawn) [Compound 544, (2S)-2-(4,4-difluoro-3-(6-(hydroxymethyl)-5-oxo-4,5-dihydropyrazin-2-yl)piperidin-1-yl)-N—((R)-5-(3,5-difluorophenyl)-6,7-dihydro-5H-pyrrolo[1,2-a]imidazol-2-yl)propanamide] | 81
14 | – | – | C[C@@H](C(=O)Nc1cn2c(n1)CC[C@@H]2c1cc(F)cc(F)c1)N1CCC(F)(F)CC1 (single isomer, unassigned) [Compound 509] | 11
15 | – | – | C[C@@H](C(=O)Nc1cn2c(n1)CCC[C@@H]2c1cc(F)cc(F)c1)N1CCC(F)(F)[C@@H](c2ccc(=O)[nH]c2)C1 (single isomer, unassigned) [Compound 507] | 130
16 | – | – | C[C@@H](C(=O)Nc1cn2c(n1)CC[C@@H]2c1cc(F)cc(F)c1)N1CCC(F)(F)[C@H](c2c[nH]c(=O)c([C@@H](N)C(F)F)c2)C1 (single isomer, unassigned) [Compound 539] | 12
17 | – | – | C[C@@H](C(=O)Nc1cn2c(n1)CC[C@@H]2c1cc(F)cc(F)c1)N1CCC(F)(F)[C@H](c2c[nH]c(=O)c([C@H](N)C(F)F)c2)C1 (single isomer, unassigned) [Compound 537] | 10
18 | – | – | C[C@@H](C(=O)Nc1cn2c(n1)CC[C@@H]2c1cc(F)cc(F)c1)N1CCC(F)(F)[C@@H](c2c[nH]c(=O)c(CN3CCC(F)(F)CC3)c2)C1 (single isomer, unassigned) [Compound 542] | 126
19 | – | – | C[C@@H](C(=O)Nc1cn2c(n1)CC[C@H]2c1cc(F)cc(F)c1)N1CCC(F)(F)CC1 (single isomer, unassigned) [Compound 510] | 87
20 | 8.46 | 7.47 | C[C@@H](C(=O)Nc1cn(Cc2cc(F)cc(F)c2)c(C(F)F)n1)N1CCC(F)(F)[C@@H](c2c[nH]c(=O)c(CO)c2)C1 (single isomer, unassigned) [Compound 490] | –
21 | – | 9.09 | C[C@@H](C(=O)Nc1cc2n(n1)CC[C@@H]2c1cc(F)cc(F)c1)N1CCC(F)(F)[C@@H](c2ccc(=O)[nH]c2)C1 (single isomer, unassigned) [Compound 530] | –
22 | 6.23 | 6.21 | C[C@@H](C(=O)Nc1cc2n(n1)CC[C@H]2c1cc(F)cc(F)c1)N1CCC(F)(F)[C@@H](c2ccc(=O)[nH]c2)C1 (single isomer, unassigned) [Compound 531] | –
23 | – | – | C[C@@H](C(=O)Nc1cn2c(n1)CC[C@@H]2c1cc(F)cc(F)c1)N1CCC(F)(F)C(c2cc[n+]([O-])c(C(O)CO)c2)C1 (stereo partly drawn) [Compound 545, 4-(1-((S)-1-(((R)-5-(3,5-difluorophenyl)-6,7-dihydro-5H-pyrrolo[1,2-a]imidazol-2-yl)amino)-1-oxopropan-2-yl)-4,4-difluoropiperidin-3-yl)-2-(1,2-dihydroxyethyl)pyridine 1-oxide] | 16
24 | – | – | C[C@@H](C(=O)Nc1cn2c(n1)CC[C@@H]2c1cc(F)cc(F)c1)N1CCC(F)(F)[C@@H](c2c[nH]c(=O)c([C@@H](N)C(F)F)c2)C1 (single isomer, unassigned) [Compound 538] | 81
25 | – | – | C[C@@H](C(=O)Nc1cn2c(n1)CC[C@@H]2c1cc(F)cc(F)c1)N1CCC(F)(F)[C@@H](c2c[nH]c(=O)c([C@H](N)C(F)F)c2)C1 (single isomer, unassigned) [Compound 536] | 89
26 | – | 7.52 | C[C@@H](C(=O)Nc1cn2c(n1)CC[C@H]2c1ccc(F)cc1F)N1CCC(F)(F)[C@@H](c2ccc(=O)[nH]c2)C1 (single isomer, unassigned) [Compound 506] | –
27 | – | 7.51 | C[C@@H](C(=O)Nc1cn2c(n1)CC[C@H]2c1cc(F)ccc1F)N1CCC(F)(F)[C@@H](c2ccc(=O)[nH]c2)C1 (single isomer, unassigned) [Compound 504] | 13
28 | – | – | C[C@@H](C(=O)Nc1cn2c(n1)CCC[C@H]2c1cc(F)cc(F)c1)N1CCC(F)(F)[C@@H](c2ccc(=O)[nH]c2)C1 (single isomer, unassigned) [Compound 508] | 110
